Source: ChEMBL document CHEMBL5291721, “A preclinical secondary pharmacology resource illuminates target-adverse drug reaction associations of marketed drugs” (Nat Commun, 2023)

Legend:
Cannabinoid receptor 1 = Cannabinoid receptor 1 (Homo sapiens, UniProt P21554); assay type: functional, cell-based
[1] = biological target: T1, Alpha-2A adrenergic receptor (Homo sapiens, UniProt P08913); assay type: functional, cell-based
T1 sequence (P08913 whole entry): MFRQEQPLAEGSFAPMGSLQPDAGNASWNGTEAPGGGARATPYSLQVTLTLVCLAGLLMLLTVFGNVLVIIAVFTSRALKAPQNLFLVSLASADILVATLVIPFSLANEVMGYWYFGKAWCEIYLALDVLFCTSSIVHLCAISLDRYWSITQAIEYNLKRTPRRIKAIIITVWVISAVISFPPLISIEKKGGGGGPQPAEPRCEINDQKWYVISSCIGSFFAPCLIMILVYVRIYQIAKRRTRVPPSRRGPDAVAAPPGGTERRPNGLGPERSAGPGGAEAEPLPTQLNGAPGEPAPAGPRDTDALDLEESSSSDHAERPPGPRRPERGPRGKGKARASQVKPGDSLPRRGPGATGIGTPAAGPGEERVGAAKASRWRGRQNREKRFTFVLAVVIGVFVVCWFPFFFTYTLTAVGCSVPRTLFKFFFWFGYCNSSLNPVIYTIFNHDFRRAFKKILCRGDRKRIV

[2] = biological target: T2, Alpha-2C adrenergic receptor (Homo sapiens, UniProt P18825); assay type: functional
T2 sequence (P18825 whole entry): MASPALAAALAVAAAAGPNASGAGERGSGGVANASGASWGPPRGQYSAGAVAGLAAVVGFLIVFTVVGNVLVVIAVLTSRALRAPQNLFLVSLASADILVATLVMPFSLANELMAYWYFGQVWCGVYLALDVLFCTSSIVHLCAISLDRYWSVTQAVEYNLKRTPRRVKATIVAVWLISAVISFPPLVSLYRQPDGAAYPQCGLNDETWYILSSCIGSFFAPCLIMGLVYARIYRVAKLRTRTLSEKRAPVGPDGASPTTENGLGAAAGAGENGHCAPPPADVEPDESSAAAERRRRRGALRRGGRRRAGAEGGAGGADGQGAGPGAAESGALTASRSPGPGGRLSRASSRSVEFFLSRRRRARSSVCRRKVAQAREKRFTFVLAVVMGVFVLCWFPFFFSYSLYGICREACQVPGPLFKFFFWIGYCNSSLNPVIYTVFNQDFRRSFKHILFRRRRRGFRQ

[3] = biological target: Sodium-dependent dopamine transporter (Homo sapiens, UniProt Q01959)
[4] = biological target: T3, Muscarinic acetylcholine receptor M2 (Homo sapiens, UniProt P08172); assay type: functional, cell-based
T3 sequence (P08172 whole entry): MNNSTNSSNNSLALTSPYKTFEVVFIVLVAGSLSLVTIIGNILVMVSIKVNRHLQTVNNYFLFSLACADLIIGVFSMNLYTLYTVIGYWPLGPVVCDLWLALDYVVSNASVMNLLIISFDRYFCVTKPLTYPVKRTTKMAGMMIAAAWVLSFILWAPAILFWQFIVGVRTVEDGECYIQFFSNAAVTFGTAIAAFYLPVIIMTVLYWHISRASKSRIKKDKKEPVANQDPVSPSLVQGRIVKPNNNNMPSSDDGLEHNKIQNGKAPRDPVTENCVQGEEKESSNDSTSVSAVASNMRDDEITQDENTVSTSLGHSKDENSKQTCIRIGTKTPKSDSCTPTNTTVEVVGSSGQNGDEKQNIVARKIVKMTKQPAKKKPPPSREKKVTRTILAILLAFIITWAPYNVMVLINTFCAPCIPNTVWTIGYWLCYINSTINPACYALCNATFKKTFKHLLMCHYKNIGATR

[5] = biological target: T4, Alpha-1A adrenergic receptor (Homo sapiens, UniProt P35348); assay type: functional, cell-based
T4 sequence (P35348 whole entry): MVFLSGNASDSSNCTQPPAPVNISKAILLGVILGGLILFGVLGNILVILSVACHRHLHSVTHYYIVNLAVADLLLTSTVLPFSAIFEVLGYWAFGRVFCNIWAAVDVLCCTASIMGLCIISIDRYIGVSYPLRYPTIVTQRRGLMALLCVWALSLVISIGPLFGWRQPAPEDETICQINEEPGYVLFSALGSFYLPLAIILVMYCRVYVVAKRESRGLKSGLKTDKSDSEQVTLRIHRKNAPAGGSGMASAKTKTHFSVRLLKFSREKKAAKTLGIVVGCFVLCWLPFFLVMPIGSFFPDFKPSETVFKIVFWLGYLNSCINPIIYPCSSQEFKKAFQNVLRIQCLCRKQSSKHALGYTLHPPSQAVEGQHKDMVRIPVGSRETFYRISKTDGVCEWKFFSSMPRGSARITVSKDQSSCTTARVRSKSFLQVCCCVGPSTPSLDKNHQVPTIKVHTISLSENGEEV

Glucocorticoid receptor = biological target: T5, Glucocorticoid receptor (Homo sapiens, UniProt P04150)
T5 sequence (P04150 whole entry): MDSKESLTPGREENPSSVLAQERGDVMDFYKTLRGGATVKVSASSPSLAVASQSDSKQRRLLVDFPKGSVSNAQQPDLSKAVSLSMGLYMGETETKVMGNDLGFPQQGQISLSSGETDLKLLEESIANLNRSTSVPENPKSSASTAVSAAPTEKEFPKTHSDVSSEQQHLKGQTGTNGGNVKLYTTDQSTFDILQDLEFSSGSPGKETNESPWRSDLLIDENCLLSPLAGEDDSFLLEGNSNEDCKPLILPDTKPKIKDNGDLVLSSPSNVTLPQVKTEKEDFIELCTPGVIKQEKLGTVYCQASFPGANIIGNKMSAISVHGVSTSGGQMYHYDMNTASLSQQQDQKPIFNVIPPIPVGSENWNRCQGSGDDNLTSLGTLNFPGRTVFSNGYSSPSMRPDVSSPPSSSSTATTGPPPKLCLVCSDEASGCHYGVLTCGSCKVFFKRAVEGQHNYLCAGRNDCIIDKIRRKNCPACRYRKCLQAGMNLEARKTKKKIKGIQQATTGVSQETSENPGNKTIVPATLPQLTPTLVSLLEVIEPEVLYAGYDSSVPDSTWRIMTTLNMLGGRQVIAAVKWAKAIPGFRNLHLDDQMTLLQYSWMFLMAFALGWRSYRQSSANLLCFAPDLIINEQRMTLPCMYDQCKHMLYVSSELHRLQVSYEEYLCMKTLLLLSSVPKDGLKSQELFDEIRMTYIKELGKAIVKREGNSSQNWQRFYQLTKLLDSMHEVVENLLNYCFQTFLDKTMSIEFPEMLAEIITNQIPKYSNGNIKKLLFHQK
Note: assay procedure not described here.

Cannabinoid receptor 1, sequence (P21554 whole entry): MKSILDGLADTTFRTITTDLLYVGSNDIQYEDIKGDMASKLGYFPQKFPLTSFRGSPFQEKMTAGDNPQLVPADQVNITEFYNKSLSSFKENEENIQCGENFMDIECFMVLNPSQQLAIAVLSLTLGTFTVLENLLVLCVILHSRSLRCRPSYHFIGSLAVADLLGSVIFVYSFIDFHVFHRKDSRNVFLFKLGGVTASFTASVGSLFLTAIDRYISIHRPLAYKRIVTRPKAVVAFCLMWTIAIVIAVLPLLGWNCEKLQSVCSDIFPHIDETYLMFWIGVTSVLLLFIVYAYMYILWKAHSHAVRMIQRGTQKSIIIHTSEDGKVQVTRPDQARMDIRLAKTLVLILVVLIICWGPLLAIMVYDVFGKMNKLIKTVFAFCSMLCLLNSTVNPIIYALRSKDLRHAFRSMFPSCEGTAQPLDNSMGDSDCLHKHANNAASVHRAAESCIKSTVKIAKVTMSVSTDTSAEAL
Sodium-dependent dopamine transporter, sequence (Q01959 whole entry): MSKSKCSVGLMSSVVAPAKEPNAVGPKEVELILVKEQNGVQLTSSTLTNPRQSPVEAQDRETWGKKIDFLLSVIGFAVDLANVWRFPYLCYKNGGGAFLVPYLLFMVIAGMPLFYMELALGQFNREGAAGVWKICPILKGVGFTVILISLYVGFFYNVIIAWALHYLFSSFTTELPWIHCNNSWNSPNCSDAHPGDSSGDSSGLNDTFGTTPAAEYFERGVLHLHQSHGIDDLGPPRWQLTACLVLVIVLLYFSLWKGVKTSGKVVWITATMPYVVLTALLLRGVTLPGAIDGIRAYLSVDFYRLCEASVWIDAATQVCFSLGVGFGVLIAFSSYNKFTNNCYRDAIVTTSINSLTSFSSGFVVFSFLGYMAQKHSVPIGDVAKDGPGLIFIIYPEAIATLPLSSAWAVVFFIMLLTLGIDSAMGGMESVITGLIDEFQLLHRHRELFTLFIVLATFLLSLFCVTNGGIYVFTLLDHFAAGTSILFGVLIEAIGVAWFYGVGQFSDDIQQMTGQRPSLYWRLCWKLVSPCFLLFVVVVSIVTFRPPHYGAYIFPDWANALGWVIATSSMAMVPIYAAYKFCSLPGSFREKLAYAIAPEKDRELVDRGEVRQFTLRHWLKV

SMILES | AC50 (Cannabinoid receptor 1) | AC50 [1] | AC50 [2] | AC50 [3] | AC50 [4] | AC50 [5] | AC50 (Glucocorticoid receptor)
C#Cc1cccc(Nc2ncnc3cc(OCCOC)c(OCCOC)cc23)c1 [ERLOTINIB] | > 30 µM | > 30 µM | > 30 µM | > 30 µM | > 30 µM | > 30 µM | 
CC(=O)/N=c1/sc(S(N)(=O)=O)nn1C [METHAZOLAMIDE] |  | > 10 µM | > 10 µM | > 10 µM | > 10 µM | > 30 µM | > 10 µM
CN(C)CCC(c1ccccc1)c1ccccn1 (centres undefined) [PHENIRAMINE] |  |  |  |  |  | > 30 µM | 
CC(C)COc1ccc(CNC(=O)N(Cc2ccc(F)cc2)C2CCN(C)CC2)cc1 [PIMAVANSERIN] |  |  |  |  |  | 11.4 µM | 
CC(C)(C)C(=O)NCCCC(=O)O [PIVAGABINE] |  |  |  |  |  | > 30 µM | 
CC(C)[N+](C)(CCOC(=O)C1c2ccccc2Oc2ccccc21)C(C)C [PROPANTHELINE] |  |  |  |  |  | > 30 µM | 
CN(C)C(=O)c1nc(CNC(=O)CN)n(-c2ccc(Cl)cc2C(=O)c2ccccc2Cl)n1 [RILMAZAFONE] |  |  |  |  |  | > 30 µM | 
NC(=O)NS(=O)(=O)c1ccc(N)cc1 [SULFACARBAMIDE] |  |  |  |  |  | > 30 µM | 
CCCCNc1ccc(C(=O)OCCN(C)C)cc1 [TETRACAINE] | > 30 µM | > 10 µM | > 10 µM | > 10 µM | > 10 µM | > 30 µM | > 30 µM
Cn1c(=O)c2[nH]cnc2n(C)c1=O [THEOPHYLLINE] | > 30 µM | > 10 µM | > 10 µM | > 30 µM | > 10 µM | > 10 µM | 
CC1(C)O[C@@H]2[C@@H](CO[C@@]3(COS(N)(=O)=O)OC(C)(C)O[C@@H]23)O1 [TOPIRAMATE] | > 30 µM | > 10 µM | > 10 µM | > 10 µM | > 10 µM | > 30 µM | 
NCCc1ccc(O)cc1 [TYRAMINE] |  |  |  |  |  | > 30 µM | 
CCCCCCCCCCCCCCCC(=O)OC/C=C(C)/C=C/C=C(C)/C=C/C1=C(C)CCCC1(C)C [VITAMIN A PALMITATE] |  |  |  |  |  | > 30 µM | 
